Measured values taken from ChEMBL document CHEMBL4616649, “Genomics-Metabolomics Profiling Disclosed Marine Vibrio spartinae 3.6 as a Producer of a New Branched Side Chain Prodigiosin” (2020).

What was measured:
Format in all cases: functional
Staphylococcus aureus [1] = assay: Antibacterial activity against Staphylococcus aureus ATCC 23235 assessed as reduction in microbial growth after 20 hrs by microdilution method; settings: ATCC 23235, 20 h
Staphylococcus aureus [2] = assay: Antibacterial activity against Staphylococcus aureus ATCC 29213 assessed as reduction in microbial growth after 20 hrs by microdilution method; settings: ATCC 29213, 20 h
[3] = system: Stenotrophomonas maltophilia; assay: Antibacterial activity against Stenotrophomonas maltophilia ATCC 13637 assessed as reduction in microbial growth after 20 hrs by microdilution method; settings: ATCC 13637, 20 h
[4] = system: Staphylococcus epidermidis; assay: Antibacterial activity against Staphylococcus epidermidis ATCC 35984 assessed as reduction in microbial growth after 20 hrs by microdilution method; settings: ATCC 35984, 20 h
[5] = system: Stenotrophomonas maltophilia; assay: Antibacterial activity against Stenotrophomonas maltophilia ATCC 700475 assessed as reduction in microbial growth after 20 hrs by microdilution method; settings: ATCC 700475, 20 h
[6] = system: Stenotrophomonas maltophilia; assay: Antibacterial activity against Stenotrophomonas maltophilia ATCC 13636 assessed as reduction in microbial growth after 20 hrs by microdilution method; settings: ATCC 13636, 20 h
Staphylococcus aureus [7] = assay: Antibacterial activity against Staphylococcus aureus 6538P assessed as reduction in microbial growth after 20 hrs by microdilution method
Listeria monocytogenes = assay: Antibacterial activity against Listeria monocytogenes MB677 assessed as reduction in microbial growth after 20 hrs by microdilution method; settings: MB677, 20 h

| SMILES | MIC (Staphylococcus aureus [1]) | MIC50 (Staphylococcus aureus [1]) | MIC (Staphylococcus aureus [2]) | MIC50 (Staphylococcus aureus [2]) | MIC [3] | MIC50 [3] | MIC [4] | MIC50 [4] | MIC [5] | MIC50 [5] | MIC [6] | MIC50 [6] | MIC (Staphylococcus aureus [7]) | MIC50 (Staphylococcus aureus [7]) | MIC (Listeria monocytogenes) | MIC50 (Listeria monocytogenes) |
| --- | --- | --- | --- | --- | --- | --- | --- | --- | --- | --- | --- | --- | --- | --- | --- | --- |
| CCCCCC1=C/C(=C\c2[nH]c(-c3ccc[nH]3)cc2OC)N=C1C | 1.3 µg/mL | 0.06 µg/mL | 3.3 µg/mL | 0.05 µg/mL | 1.7 µg/mL | 0.66 µg/mL | 2 µg/mL | 0.33 µg/mL | 2.7 µg/mL | 0.5 µg/mL | 1.7 µg/mL | 0.13 µg/mL | 1.7 µg/mL | 0.04 µg/mL | 1.7 µg/mL | 0.16 µg/mL |
| COc1cc(-c2ccc[nH]2)[nH]c1/C=C1\N=C(C)C2=C1C(C)CCC2 (stereo not drawn) | 3.3 µg/mL | 0.08 µg/mL | 4 µg/mL | 0.06 µg/mL | 3.3 µg/mL | 2 µg/mL | 3.3 µg/mL | 0.5 µg/mL | 5.3 µg/mL | 1.7 µg/mL | 3.3 µg/mL | 1 µg/mL | 3.3 µg/mL | 0.05 µg/mL | 4 µg/mL | 0.4 µg/mL |
| CC1(C)S[C@@H]2[C@H](NC(=O)[C@H](N)c3ccccc3)C(=O)N2[C@H]1C(=O)O [AMPICILLIN] | – | – | – | – | – | – | – | – | – | – | – | – | – | – | 0.8 µg/mL | – |
| COc1cc(-c2ccc[nH]2)[nH]c1/C=C1/C=C(CCCCC(C)C)C(C)=N1 | 21 µg/mL | 0.5 µg/mL | 27 µg/mL | 0.5 µg/mL | 27 µg/mL | 3.3 µg/mL | 27 µg/mL | 2.7 µg/mL | 27 µg/mL | 4 µg/mL | 27 µg/mL | 3.3 µg/mL | 21 µg/mL | 0.2 µg/mL | 21 µg/mL | 3.3 µg/mL |
| CN[C@H](CC(C)C)C(=O)N[C@H]1C(=O)N[C@@H](CC(N)=O)C(=O)N[C@H]2C(=O)N[C@H]3C(=O)N[C@H](C(=O)N[C@H](C(=O)O)c4cc(O)cc(O)c4-c4cc3ccc4O)[C@H](O)c3ccc(c(Cl)c3)Oc3cc2cc(c3O[C@@H]2O[C@H](CO)[C@@H](O)[C@H](O)[C@H]2O[C@H]2C[C@](C)(N)[C@H](O)[C@H](C)O2)Oc2ccc(cc2Cl)[C@H]1O [VANCOMYCIN] | – | – | – | – | – | – | – | – | – | – | – | – | 1.7 µg/mL | – | – | – |
| O=C(N[C@H](CO)[C@H](O)c1ccc([N+](=O)[O-])cc1)C(Cl)Cl [CHLORAMPHENICOL] | – | – | – | – | 3.3 µg/mL | – | – | – | 4 µg/mL | – | 4 µg/mL | – | – | – | – | – |
